Data from ChEMBL document CHEMBL2203035, “Synthesis and docking studies of novel antitumor benzimidazoles” (Bioorg Med Chem, 2012).

Experiments:
A549 [1] = assay: Downregulation of uPA protein expression in human A549 cell extract at 3 uM after 48 hrs by ELISA (reference value: 11.00 +/-1.60 ng/ml); type: functional
A549 [2] = assay: Downregulation of uPA protein expression in human A549 cell extract at 1.5 uM after 48 hrs by ELISA (reference value: 11.00 +/-1.60 ng/ml); type: functional
[3] = target: Urokinase plasminogen activator surface receptor (Homo sapiens, UniProt Q03405); assay: Binding affinity to uPAR
Chain of Urokinase plasminogen activator surface receptor (Q03405 whole entry): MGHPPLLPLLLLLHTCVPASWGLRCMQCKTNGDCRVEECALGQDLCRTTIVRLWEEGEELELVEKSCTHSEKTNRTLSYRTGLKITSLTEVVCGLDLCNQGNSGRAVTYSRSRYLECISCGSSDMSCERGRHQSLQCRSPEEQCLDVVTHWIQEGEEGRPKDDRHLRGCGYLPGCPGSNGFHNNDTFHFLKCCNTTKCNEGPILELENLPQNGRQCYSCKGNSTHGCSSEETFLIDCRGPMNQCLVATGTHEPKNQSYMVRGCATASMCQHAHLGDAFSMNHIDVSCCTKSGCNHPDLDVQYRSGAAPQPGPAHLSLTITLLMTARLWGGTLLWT

Raji [4] = assay: Inhibition of tumor promotion in human Raji cells assessed as TPA-induced Epstein-Barr virus early antigen activation at 10 mol ratio/TPA after 48 hrs by indirect immunofluorescence analysis relative to TPA alone; type: functional; set-up: scale not given: the % may be the effect or the level left
Raji [5] = assay: Inhibition of tumor promotion in human Raji cells assessed as TPA-induced Epstein-Barr virus early antigen activation at 100 mol ratio/TPA after 48 hrs by indirect immunofluorescence analysis relative to TPA alone; type: functional; set-up: scale not given: the % may be the effect or the level left
Raji [6] = assay: Inhibition of tumor promotion in human Raji cells assessed as TPA-induced Epstein-Barr virus early antigen activation at 500 mol ratio/TPA after 48 hrs by indirect immunofluorescence analysis relative to TPA alone; type: functional; set-up: scale not given: the % may be the effect or the level left
Raji [7] = assay: Inhibition of tumor promotion in human Raji cells assessed as TPA-induced Epstein-Barr virus early antigen activation at 1000 mol ratio/TPA after 48 hrs by indirect immunofluorescence analysis relative to TPA alone; type: functional; set-up: scale not given: the % may be the effect or the level left
A549 [8] = assay: Cytotoxicity against human A549 cells after 72 hrs by alamar blue assay; type: functional, cell-based; conditions: A549, 72 h
MCF7 [9] = assay: Downregulation of uPA protein expression in human MCF7 cell extract at 0.50 uM after 48 hrs by ELISA; type: functional
MCF7 [10] = assay: Downregulation of uPA protein expression in human MCF7 cell extract at 0.125 uM after 48 hrs by ELISA; type: functional
MCF7 [11] = assay: Downregulation of uPA protein expression in human MCF7 cell extract at 0.25 uM after 48 hrs by ELISA; type: functional
MCF7 [12] = assay: Downregulation of uPA protein expression in human MCF7 cell extract at 0.0625 uM after 48 hrs by ELISA; type: functional
MCF7 [13] = assay: Downregulation of uPA protein expression in human MCF7 cell extract at 0.50 uM after 48 hrs by ELISA (reference value: 1 1.4000 +/- 1.40 ng/ml); type: functional
MCF7 [14] = assay: Downregulation of uPA protein expression in human MCF7 cell extract at 0.25 uM after 48 hrs by ELISA (reference value: 1 1.4000 +/- 1.40 ng/ml); type: functional
MCF7 [15] = assay: Downregulation of uPA protein expression in human MCF7 cell extract at 0.125 uM after 48 hrs by ELISA (reference value: 1 1.4000 +/- 1.40 ng/ml); type: functional
A549 [16] = assay: Downregulation of uPA protein expression in human A549 cell extract at 12 uM after 48 hrs by ELISA (reference value: 11.00 +/-1.60 ng/ml); type: functional
A549 [17] = assay: Downregulation of uPA protein expression in human A549 cell extract at 6 uM after 48 hrs by ELISA (reference value: 11.00 +/-1.60 ng/ml); type: functional
MCF7 [18] = assay: cells; conditions: Homo sapiens, MCF7, 48 h
Description: Cytotoxicity against human MCF7 cells after 48 hrs by sulforhodamine B assay

MCF7 [19] = assay: Downregulation of uPA protein expression in human MCF7 cell extract at 0.0625 ug/well after 48 hrs by ELISA (reference value: 1 1.4000 +/- 1.40 ng/ml)
MCF7 [20] = assay: Downregulation of uPA protein expression in human MCF7 cell extract at 0.335 uM after 48 hrs by ELISA; type: functional
MCF7 [21] = assay: Downregulation of uPA protein expression in human MCF7 cell extract at 0.67 uM after 48 hrs by ELISA; type: functional
MCF7 [22] = assay: Downregulation of uPA protein expression in human MCF7 cell extract at 0.167 uM after 48 hrs by ELISA; type: functional
MCF7 [23] = assay: Downregulation of uPA protein expression in human MCF7 cell extract at 0.084 uM after 48 hrs by ELISA; type: functional
A549 [24] = assay: Downregulation of uPA protein expression in human A549 cell extract at 3.40 uM after 48 hrs by ELISA; type: functional
A549 [25] = assay: Downregulation of uPA protein expression in human A549 cell extract at 0.85 uM after 48 hrs by ELISA; type: functional
A549 [26] = assay: Downregulation of uPA protein expression in human A549 cell extract at 1.70 uM after 48 hrs by ELISA; type: functional
A549 [27] = assay: Downregulation of uPA protein expression in human A549 cell extract at 0.425 uM after 48 hrs by ELISA; type: functional
MCF7 [28] = assay: Downregulation of uPA protein expression in human MCF7 cell extract at 0.67 uM after 48 hrs by ELISA (reference value: 1 1.4000 +/- 1.40 ng/ml); type: functional
A549 [29] = assay: Downregulation of uPA protein expression in human A549 cell extract at 3.40 uM after 48 hrs by ELISA (reference value: 11.0000 +/-1.60 ng/ml); type: functional
A549 [30] = assay: Downregulation of uPA protein expression in human A549 cell extract at 1.70 uM after 48 hrs by ELISA (reference value: 11.0000 +/-1.60 ng/ml); type: functional
A549 [31] = assay: Downregulation of uPA protein expression in human A549 cell extract at 0.85 uM after 48 hrs by ELISA (reference value: 11.0000 +/-1.60 ng/ml); type: functional
A549 [32] = assay: Downregulation of uPA protein expression in human A549 cell extract at 0.425 uM after 48 hrs by ELISA (reference value: 11.0000 +/-1.60 ng/ml); type: functional
MCF7 [33] = assay: Downregulation of uPA protein expression in human MCF7 cell extract at 0.335 ug/well after 48 hrs by ELISA (reference value: 1 1.4000 +/- 1.40 ng/ml)
MCF7 [34] = assay: Downregulation of uPA protein expression in human MCF7 cell extract at 0.167 ug/well after 48 hrs by ELISA (reference value: 1 1.4000 +/- 1.40 ng/ml)
MCF7 [35] = assay: Downregulation of uPA protein expression in human MCF7 cell extract at 0.084 ug/well after 48 hrs by ELISA (reference value: 1 1.4000 +/- 1.40 ng/ml)

SMILES: N#Cc1cc(-c2ccccc2)n(Cc2nc3ccccc3[nH]2)c1N
- Activity (A549 [1]): 9.7 ng/mL
- Activity (A549 [2]): 11.6 ng/mL
- Ki [3]: 0.000589 nM
- Activity (Raji [4]): 100%
- Activity (Raji [5]): 82%
- Activity (Raji [6]): 48.3%
- Activity (Raji [7]): 18%
- IC50 (A549 [8]): 12000 nM
- Activity (MCF7 [9]): 75%
- Activity (MCF7 [10]): 50%
- Activity (MCF7 [11]): 65%
- Activity (MCF7 [12]): 35%
- Activity (MCF7 [13]): 2.8 ng/mL
- Activity (MCF7 [14]): 4 ng/mL
- Activity (MCF7 [15]): 5.7 ng/mL
- Activity (A549 [16]): 9.2 ng/mL
- Activity (A549 [17]): 9.8 ng/mL
- IC50 (MCF7 [18]): 0.515 µg/well
- Activity (MCF7 [19]): 7.4 ng/mL

SMILES: C=CCn1c(CN2C3=Nc4ccccc4C(=O)NC3=Nc3ccccc32)nc2ccccc21
- Ki [3]: 0.000288 nM
- Activity (Raji [4]): 100%
- Activity (Raji [5]): 77.9%
- Activity (Raji [6]): 45.8%
- Activity (Raji [7]): 11.6%
- IC50 (A549 [8]): 3400 nM
- Activity (MCF7 [20]): 39%
- Activity (MCF7 [21]): 61%
- Activity (MCF7 [22]): 33%
- Activity (MCF7 [23]): 23%
- Activity (A549 [24]): 65%
- Activity (A549 [25]): 44%
- Activity (A549 [26]): 52%
- Activity (A549 [27]): 33%
- Activity (MCF7 [28]): 4.4 ng/mL
- Activity (A549 [29]): 3.8 ng/mL
- Activity (A549 [30]): 5.3 ng/mL
- Activity (A549 [31]): 6.2 ng/mL
- Activity (A549 [32]): 7.4 ng/mL
- IC50 (MCF7 [18]): 0.667 µg/well
- Activity (MCF7 [33]): 7 ng/mL
- Activity (MCF7 [34]): 7.7 ng/mL
- Activity (MCF7 [35]): 8.8 ng/mL
